{"source": "patent US20190175728A1", "about": "“NUCLEIC ACID-ANTIGEN PEPTIDE CONJUGATE” (NAPAJEN PHARMA, INC., priority 2017, published 2019)", "key": {"[1]": {"system": "OVA257-264 presenting cells (CFSE^high spleen cells)", "test": "In vivo CTL assay", "parameters": "species or system C57BL/6J mice", "conditions": "target cells given day 7, counted after 24 hours", "procedure": "SPG/dA40(S)-OVA257-264 (20, 100, 500 ng in the amount of OVA257-264) and CpG-dA40(S)/SPG (30 μg in the amount of CpG-dA) were intradermally administered to C57BL/6J mice.\nOn day 7 of administration, spleen cells were provided according to the following procedure. Spleen cells excised from normal C57BL/6J mice were treated with 10 μg/ml of OVA257-264 at 37° C. for 90 minutes. Thereafter, the spleen cells were washed three times with PBS, and the spleen cells were labeled with 5 μM carboxyfluorescein succinimidyl ester (CFSE); Invitrogen, Carlsbad, Calif.). Further, spleen cells not treated with OVA257-264 were similarly labeled with CFSE (0.5 μM). The labeled cells were washed three times with PBS. The spleen cells treated with OVA257-264 (CFSE^high) and the spleen cells not treated with OVA257-264 (CFSE^low) were mixed so that the number of the treated spleen cells was equal to the number of the untreated spleen cells. […] After that, the spleen cells were removed from the mice, and the CFSE-labeled cells were counted by flow cytometry.\nOVA257-264 presenting cells were not observed when the dose of OVA257-264 was 100 ng/head or more. […] The difference in ability of inducing CTL reaction between SPG/dA40(S)-OVA257-264 and OVA257-264-click-dA40(S)/SPG was consistent with the result of Example 5 in which the antigen presenting ability was evaluated."}, "[2]": {"molecular_target": "T1, murine endoplasmic reticulum aminopeptidase (Mus musculus, UniProt Q9EQH2)", "T1 construct": "purchased R & D Systems 2500-ZN", "T1 sequence (Q9EQH2 1-930)": "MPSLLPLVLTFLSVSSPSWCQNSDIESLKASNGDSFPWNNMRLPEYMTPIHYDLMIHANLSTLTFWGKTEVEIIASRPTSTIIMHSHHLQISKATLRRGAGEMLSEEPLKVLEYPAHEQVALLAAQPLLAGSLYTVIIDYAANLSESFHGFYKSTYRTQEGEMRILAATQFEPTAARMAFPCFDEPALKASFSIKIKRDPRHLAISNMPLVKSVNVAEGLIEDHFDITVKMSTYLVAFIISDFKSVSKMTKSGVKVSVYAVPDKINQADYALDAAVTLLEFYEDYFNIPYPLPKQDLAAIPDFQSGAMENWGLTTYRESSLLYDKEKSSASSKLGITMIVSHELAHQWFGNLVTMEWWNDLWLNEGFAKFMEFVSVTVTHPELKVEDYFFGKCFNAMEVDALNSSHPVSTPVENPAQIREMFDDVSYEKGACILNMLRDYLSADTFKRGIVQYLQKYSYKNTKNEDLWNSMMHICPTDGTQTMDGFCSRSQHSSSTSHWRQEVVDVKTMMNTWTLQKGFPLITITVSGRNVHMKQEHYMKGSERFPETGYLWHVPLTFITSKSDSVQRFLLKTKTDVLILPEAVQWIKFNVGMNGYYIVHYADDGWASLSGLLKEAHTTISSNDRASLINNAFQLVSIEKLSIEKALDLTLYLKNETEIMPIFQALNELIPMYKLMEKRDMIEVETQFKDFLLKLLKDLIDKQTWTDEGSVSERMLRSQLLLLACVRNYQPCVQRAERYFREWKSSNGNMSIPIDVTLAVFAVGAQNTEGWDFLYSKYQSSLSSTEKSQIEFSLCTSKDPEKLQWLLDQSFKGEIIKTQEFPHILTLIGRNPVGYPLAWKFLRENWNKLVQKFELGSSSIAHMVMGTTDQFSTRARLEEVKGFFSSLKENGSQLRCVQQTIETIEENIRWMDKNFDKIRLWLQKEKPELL", "test": "Cleavage of dA40(S)-peptide conjugate by endoplasmic reticulum aminopeptidase (polyacrylamide gel electrophoresis)", "assay_type": "biochemical", "conditions": "conjugate 1.5 μM, aminopeptidase 0.5 μg/ml, 25 mM Tris buffer pH 8.0, 37° C., 18 hours", "procedure": "Each of the dA40(S)-peptide conjugates (1.5 μM) and murine endoplasmic reticulum aminopeptidase (0.5 μg/ml) (R & D Systems catalog Number 2500-ZN) were added to a 25 mM Tris buffer (pH 8.0) and the mixture was incubated at 37° C. for 18 hours. After completion of the reaction, polyacrylamide gel electrophoresis was carried out to observe the state of release from the dA40(S)-peptide conjugate.\nIn FIG. 2, pep(C)-dA40(S) represents a dA40(S)-peptide conjugate obtained by using peptide 1, dA40(S)-(C)pep represents a dA40(S)-peptide conjugate obtained by using peptide 2, dA40(S)-(C)pep long represents a dA40(S)-peptide conjugate obtained by using peptide 3, and dA40(S)-(C)pep long miss (L→K) represents a dA40(S)-peptide conjugate obtained by using peptide 4. […] Aminopeptidase is one of the enzymes that trim antigen peptides to present the antigen peptides to MHC. Accordingly, it is important for antigen presentation using the dA40(S)-peptide conjugate that even in the case of the peptide in which polydeoxyadenine is bonded to the N-terminal cysteine, the C-terminal side is composed of the hydrophobic amino acid residue. This fact was confirmed."}, "[3]": {"system": "macrophages recovered from the peritoneal cavity", "test": "Antigen presenting ability of dA40(S)-peptide conjugates, fluorescence microscopy after anti-OVA257-264/H-2Kb PE staining", "assay_type": "cell-based, C57BL/6J mice", "conditions": "conjugate 10 μM, 18 hours, 1.5×10^5 cells/well", "procedure": "(§1) 3 ml of thioglycollate medium was administered to the peritoneal cavity of C57BL/6J mice 3 days later, macrophages were recovered from the peritoneal cavity. The resulting macrophages were seeded in 48 wells (1.5×10^5 cells/well), and further each of the dA40(S)-peptide conjugates was added to the wells at a concentration of 10 μM. […], the fixed cells were stained with Anti-Mouse OVA257-264 (SIINFEKL) peptide bound to H-2Kb PE, and the resulting cells were subjected to fluorescence microscopic observation.\nIn FIG. 3, pep(C)-dA40(S) represents a dA40(S)-peptide conjugate obtained by using peptide 1, dA40(S)-(C)pep represents a dA40(S)-peptide conjugate obtained by using peptide 2, dA40(S)-(C)pep long represents a dA40(S)-peptide conjugate obtained by using peptide 3, and dA40(S)-(C)pep long miss (L→K) represents a dA40(S)-peptide conjugate obtained by using peptide 4."}, "[4]": {"system": "macrophages recovered from the peritoneal cavity", "test": "Antigen presenting ability of SPG/dA40(S)-OVA257-264, flow cytometry after anti-OVA257-264/H-2Kb PE staining", "assay_type": "cell-based, C57BL/6J mice", "conditions": "concentration of OVA257-264 5 μg/ml, 18 hours", "procedure": "as §1, with “SPG/dA40(S)-OVA257-264, dA40(S)-OVA257-264, or OVA257-264-click-dA40(S)/SPG” for “each of the dA40(S)-peptide conjugates”, “added” for “added to the wells”, “OVA257-264 of 5 μg/ml.” for “10 μM.”, “analyzed by flow cytometry.” for “subjected to fluorescence microscopic observation.”"}, "[5]": {"molecular_target": "T2, dA40(S)-peptide conjugate obtained by using peptide 1", "T2 chain": "SIINFEKLC"}, "[6]": {"molecular_target": "T3, dA40(S)-peptide conjugate obtained by using peptide 2", "T3 chain": "CSIINFEKL"}, "[7]": {"molecular_target": "T4, dA40(S)-peptide conjugate obtained by using peptide 3", "T4 chain": "CQLESIINFEKL"}}, "note": "No end group written: not given here."}
{"molecule": "SPG/dA40(S)-OVA257-264: complex of dA40(S)-OVA257-264 and schizophyllan (SPG) (SIINFEKL; also: dA40(S) conjugate, site not given here, complex with schizophyllan (SPG); UniProt P01012 258-265, looked up, fragment)", "values": [{"measurement": "decrease in OVA257-264 presenting cells (CFSE^high spleen cells)", "setting": "[1]; intradermal, 20, 100, 500 ng OVA257-264, together with CpG-dA40(S)/SPG 30 μg", "value": "observed depending on the dose of OVA257-264"}, {"measurement": "dose of OVA257-264 at which OVA257-264 presenting cells were not observed", "setting": "[1]; intradermal, together with CpG-dA40(S)/SPG 30 μg", "value": "≥ 100", "unit": "ng/head"}]}
{"molecule": "dA40(S)-(C)pep long miss (L→K): dA40(S) disulfide-bonded via LC-SPDP linker to N-terminal cysteine of peptide 4, CSIINFEKK (SEQ ID NO: 4) (cyclised or stapled)", "values": [{"measurement": "state of release from the dA40(S)-peptide conjugate after enzyme treatment", "setting": "[2]", "value": "not recognized by the enzyme"}, {"measurement": "fluorescence of OVA257-264 (SIINFEKL) bound to H-2Kb (antigen presentation)", "setting": "[3]", "value": "antigen presentation hardly occurred"}]}
{"molecule": "dA40(S)-OVA257-264: conjugate of dA40(S) and ovalbumin antigen peptide OVA257-264 (SIINFEKL), prepared in the manner described in Example 1 (also: dA40(S) conjugate, site not given here; UniProt P01012 258-265, looked up, fragment)", "values": [{"measurement": "antigen (OVA257-264) presentation level", "setting": "[4]", "value": "the same as that of SPG/dA40(S)-OVA257-264"}]}
{"molecule": "pep(C)-dA40(S): dA40(S) disulfide-bonded via LC-SPDP linker to C-terminal cysteine of peptide 1, SIINFEKLC (SEQ ID NO: 1) (cyclised or stapled)", "values": [{"measurement": "state of release from the dA40(S)-peptide conjugate after enzyme treatment", "setting": "[2]", "value": "no change was observed in the electrophoretic distance"}, {"measurement": "fluorescence of OVA257-264 (SIINFEKL) bound to H-2Kb (antigen presentation)", "setting": "[3]", "value": "Very weak fluorescence"}]}
{"molecule": "murine endoplasmic reticulum aminopeptidase (R & D Systems catalog Number 2500-ZN) (protein) DIESLKASNGDSFPWNNMRLPEYMTPIHYDLMIHANLSTLTFWGKTEVEIIASRPTSTIIMHSHHLQISKATLRRGAGEMLSEEPLKVLEYPAHEQVALLAAQPLLAGSLYTVIIDYAANLSESFHGFYKSTYRTQEGEMRILAATQFEPTAARMAFPCFDEPALKASFSIKIKRDPRHLAISNMPLVKSVNVAEGLIEDHFDITVKMSTYLVAFIISDFKSVSKMTKSGVKVSVYAVPDKINQADYALDAAVTLLEFYEDYFNIPYPLPKQDLAAIPDFQSGAMENWGLTTYRESSLLYDKEKSSASSKLGITMIVSHELAHQWFGNLVTMEWWNDLWLNEGFAKFMEFVSVTVTHPELKVEDYFFGKCFNAMEVDALNSSHPVSTPVENPAQIREMFDDVSYEKGACILNMLRDYLSADTFKRGIVQYLQKYSYKNTKNEDLWNSMMHICPTDGTQTMDGFCSRSQHSSSTSHWRQEVVDVKTMMNTWTLQKGFPLITITVSGRNVHMKQEHYMKGSERFPETGYLWHVPLTFITSKSDSVQRFLLKTKTDVLILPEAVQWIKFNVGMNGYYIVHYADDGWASLSGLLKEAHTTISSNDRASLINNAFQLVSIEKLSIEKALDLTLYLKNETEIMPIFQALNELIPMYKLMEKRDMIEVETQFKDFLLKLLKDLIDKQTWTDEGSVSERMLRSQLLLLACVRNYQPCVQRAERYFREWKSSNGNMSIPIDVTLAVFAVGAQNTEGWDFLYSKYQSSLSSTEKSQIEFSLCTSKDPEKLQWLLDQSFKGEIIKTQEFPHILTLIGRNPVGYPLAWKFLRENWNKLVQKFELGSSSIAHMVMGTTDQFSTRARLEEVKGFFSSLKENGSQLRCVQQTIETIEENIRWMDKNFDKIRLWLQKEKPELL", "values": [{"measurement": "release of dA40(S) from the conjugate, polyacrylamide gel electrophoresis after enzyme treatment", "setting": "[5]", "value": "no change was observed in the electrophoretic distance even when subjected to enzyme treatment"}, {"measurement": "release of dA40(S) from the conjugate, polyacrylamide gel electrophoresis after enzyme treatment", "setting": "[6]", "value": "a band of dA40(S) was slightly observed after the enzyme treatment"}, {"measurement": "release of dA40(S) from the conjugate, polyacrylamide gel electrophoresis after enzyme treatment", "setting": "[7]", "value": "the peptide was almost completely released and a band of dA40(S) was observed"}]}
